Tests used:
[1] = system: RCC4 cells; assay: XTT assay in VHL-deficient RCC4 cells; assay type: cell-based; conditions: Homo sapiens, 96 h, XTT assay, VHL-deficient RCC4 cells, four days
Description: (§1) Cell Viability and XTT assays. For cell viability, 100,000 cells were plated in a 12-well plate. The following day, 1.25 μM STF-62247 was added in the presence or absence of 1 mM 3-MA for 24 hours at 37° C. Cells were trypsinized and counted by trypan blue exclusion. For XTT assays, 5000 RCC4 with and without VHL cells or 2,500 SN12C with and without VHL shRNA cells were plated in 96-well plates. The following day, vehicle (DMSO), STF-62247 or each of 19 analogs were added to media by serial dilution. Four days later, the media was aspirated and XTT solution containing 0.3 mg/ml of XTT (Sigma Chemical Co) in Phenol Red-free media, 20% FCS and 2.65 mg/ml N-methyl dibenzopyrazine methyl sulfate (PMS) was added to the cells and incubated at 37° C. for 1-2 hours. Metabolism of XTT was quantified by measuring the absorbance at 450 nm on a plate reader.

[2] = system: RCC4/VHL cells; assay: XTT assay, RCC4/VHL versus RCC4 cells (selectivity ratio); assay type: cell-based; conditions: selectivity ratio, IC50 in RCC4/VHL cells/IC50 in RCC4 cells
Description: as §1
A. RCC4 and RCC4/VHL were treated with 1.25 μM of each 19 analogs for 20 hours and the presence of vacuoles was examined under light microscopy. B. Western blot for LC3 after treatment with each compound. Tubulin was used as loading control. Ratio is the relative from the IC50 in RCC4/VHL cells/IC50 in RCC4 cells. C. Acidic vesicle organelles (AVO) measured by FACS analysis in cells treated with 1.25 μM of STF-62247 or with compounds 21, 15, 25, 47, and 53 and stained with acridine orange.

Compound | IC50 ([1]; Table 1) [µM] | Ratio ([2]; Table 1) | IC50 ([1]; Table 2) [µM] | Ratio ([2]; Table 2)
COC(=O)/C=C/c1sc(Nc2cccc(C)c2)nc1-c1ccncc1 [Compound 78, Methyl (2E)-3-[2-[(3-Methylphenyl)amino]-4-(4-pyridinyl)-1,3-thiazol-5-yl]-2-propenoate] | 2.5 | 2.8 | – | –
Cc1cccc(Nc2nc(-c3ccncc3)c(CN3CCOCC3)s2)c1 [Compound 86, N-(3-Methylphenyl)-5-(4-morpholinylmethyl)-4-(4-pyridinyl)-1,3-thiazol-2-amine] | 2.5 | 4.8 | – | –
Brc1cccc(Nc2nc(-c3ccncc3)cs2)c1 [Compound 123, N-(3-Bromophenyl)-4-(4-pyridinyl)-1,3-thiazol-2-amine] | 12.4 | >3.2 | – | –
Cc1cccc(Nc2nc(-c3ccncc3)c(CO)s2)c1 [Compound 74, [2-[(3-Methylphenyl)amino]-4-(4-pyridinyl)-1,3-thiazol-5-yl]methanol] | 7 | 2.4 | – | –
CN(C)CCOc1ccc(Nc2nc(-c3ccncc3)cs2)cc1 [Compound 29, N-{4-[2-(Dimethylamino)ethoxy]phenyl}-4-(4-pyridinyl)-1,3-thiazol-2-amine] | 60 | 1.3 | – | –
Cc1cccc(Nc2nc(-c3ccnc(C#CCO)c3)cs2)c1 [Compound 161, 3-(4-{2-[(3-Methylphenyl)amino]-1,3-thiazol-4-yl}-2-pyridinyl)-2-propyn-1-ol] | – | – | 9.3 | 1.6
Cc1ccc(Nc2nc(-c3ccncc3)c(CO)s2)cc1 [Compound 75, [2-[(4-Methylphenyl)amino]-4-(4-pyridinyl)-1,3-thiazol-5-yl]methanol] | 14 | 1.2 | – | –
CC(=O)Nc1cnccc1-c1csc(Nc2cccc(C)c2)n1 [Compound 183] | – | – | 33.3 | 1.0
CCN(c1cccc(C)c1)c1nc(-c2ccncc2)cs1 [Compound 96, N-Ethyl-N-(3-methylphenyl)-4-(4-pyridinyl)-1,3-thiazol-2-amine] | 40 | 0.6 | – | –
Cc1ccc(Nc2nc(-c3ccncc3)cs2)cc1O [Compound 49, 2-Methyl-5-{[4-(4-pyridinyl)-1,3-thiazol-2-yl]amino}phenol] | 12 | 4.6 | – | –
Cc1cccc(Nc2nc(-c3ccnc(Cl)c3)cs2)c1 [Compound 150, 4-(2-Chloro-4-pyridinyl)-N-(3-methylphenyl)-1,3-thiazol-2-amine] | – | – | 2.2 | 3.8
Cc1cccc(N(C)c2nc(-c3ccncc3)cs2)c1 [Compound 95, N-Methyl-N-(3-methylphenyl)-4-(4-pyridinyl)-1,3-thiazol-2-amine] | 28 | 0.6 | – | –
Oc1ccccc1Nc1nc(-c2ccncc2)cs1 [Compound 107, 2-{[4-(4-Pyridinyl)-1,3-thiazol-2-yl]amino}phenol] | 12.8 | >3.1 | – | –
Cc1sc(Nc2ccc3c(c2)CCC3)nc1-c1ccncc1 [Compound 72, N-(2,3-Dihydro-1H-inden-5-yl)-5-methyl-4-(4-pyridinyl)-1,3-thiazol-2-amine] | 12 | 1.5 | – | –
Cc1cccc(Nc2nc(-c3ccnc4ccccc34)cs2)c1 [Compound 192, N-(3-Methylphenyl)-4-(4-quinolinyl)-1,3-thiazol-2-amine] | – | – | 12.3 | 1.6
Fc1ccccc1Nc1nc(-c2ccncc2)cs1 [Compound 113, N-(2-Fluorophenyl)-4-(4-pyridinyl)-1,3-thiazol-2-amine] | 14.3 | >2.8 | – | –
Cc1cccc(Nc2nc(-c3ccnc(F)c3)cs2)c1 [Compound 149, 4-(2-Fluoro-4-pyridinyl)-N-(3-methylphenyl)-1,3-thiazol-2-amine] | – | – | 4.5 | >8.9

Compound | IC50 ([1]; Table 1) [µM] | Ratio ([2]; Table 1) | IC50 ([1]; Table 2) [µM] | Ratio ([2]; Table 2)
Cc1cccc(Nc2nc(-c3ccncc3)c(CCCO)s2)c1 [Compound 81, 3-[2-[(3-Methylphenyl)amino]-4-(4-pyridinyl)-1,3-thiazol-5-yl]-1-propanol] | 3.6 | 3.7 | – | –
c1ccc(Nc2nc(-c3ccncc3)cs2)cc1 [Compound 3, N-Phenyl-4-(4-pyridinyl)-1,3-thiazol-2-amine] | 7 | >10 | – | –
Cc1cccc(Nc2nc(-c3ccncc3)c(CN3CCCCC3)s2)c1 [Compound 85, N-(3-Methylphenyl)-5-(1-piperidinylmethyl)-4-(4-pyridinyl)-1,3-thiazol-2-amine] | 13 | 1.9 | – | –
CC(=O)c1cccc(Nc2nc(-c3ccncc3)cs2)c1 [Compound 125, 1-(3-{[4-(4-Pyridinyl)-1,3-thiazol-2-yl]amino}phenyl)ethanone] | 13 | >3.1 | – | –
Oc1ccc(Nc2nc(-c3cccnc3)cs2)cc1 [Compound 66, 4-{[4-(3-Pyridinyl)-1,3-thiazol-2-yl]amino}phenol] | > 40 | – | – | –
Cc1cccc(Nc2nc(-c3ccncc3C)cs2)c1 [Compound 166, N-(3-Methylphenyl)-4-(3-methyl-4-pyridinyl)-1,3-thiazol-2-amine] | – | – | 5.2 | >7.7
Clc1ccc(Nc2nc(-c3ccncc3)cs2)cc1Cl [Compound 61, N-(3,4-Dichlorophenyl)-4-(4-pyridinyl)-1,3-thiazol-2-amine] | 13.5 | >3 | – | –
COc1ccc(Nc2nc(-c3ccncc3)cs2)cc1OC [Compound 55, N-(3,4-Dimethoxyphenyl)-4-(4-pyridinyl)-1,3-thiazol-2-amine] | 24 | 1.9 | – | –
Cc1cccc(Nc2nc(-c3ccccn3)cs2)c1 [Compound 68, N-(3-Methylphenyl)-4-(2-pyridinyl)-1,3-thiazol-2-amine] | 37 | 0.9 | – | –
Oc1ccc(Nc2nc(-c3ccccn3)cs2)cc1 [Compound 69, 4-{[4-(2-Pyridinyl)-1,3-thiazol-2-yl]amino}phenol] | 36 | 0.7 | – | –
OCCc1ccc(Nc2nc(-c3ccncc3)cs2)cc1 [Compound 23, 2-(4-{[4-(4-Pyridinyl)-1,3-thiazol-2-yl]amino}phenyl)ethanol] | 5 | 16 | – | –
OCc1sc(Nc2ccccc2)nc1-c1ccncc1 [Compound 73, [2-(Phenylamino)-4-(4-pyridinyl)-1,3-thiazol-5-yl]methanol] | 30 | >1.3 | – | –
Cc1cccc(Nc2nc(-c3ccnc(CCCO)c3)cs2)c1 [Compound 162, 3-(4-{2-[(3-Methylphenyl)amino]-1,3-thiazol-4-yl}-2-pyridinyl)-1-propanol] | – | – | 5.2 | >7.7
CCN(CC)Cc1sc(Nc2cccc(C)c2)nc1-c1ccncc1 [Compound 84, 5-[(Diethylamino)methyl]-N-(3-methylphenyl)-4-(4-pyridinyl)-1,3-thiazol-2-amine] | 13 | 1.4 | – | –
Fc1ccc(Nc2nc(-c3ccncc3)cs2)cc1 [Compound 33, N-(4-Fluorophenyl)-4-(4-pyridinyl)-1,3-thiazol-2-amine] | 6 | >7 | – | –
Cc1cccc(Nc2nc(-c3cccnc3)cs2)c1 [Compound 65, N-(3-Methylphenyl)-4-(3-pyridinyl)-1,3-thiazol-2-amine] | > 40 | – | – | –
FC(F)(F)c1ccc(Nc2nc(-c3ccncc3)cs2)cc1 [Compound 133, 4-(4-Pyridinyl)-N-[4-(trifluoromethyl)phenyl]-1,3-thiazol-2-amine] | > 40 | – | – | –
